Test results as given in publication PMC12534982 (Journal of Experimental & Clinical Cancer Research : CR, 2025).

Tests used:
Assay type in all cases: cell-based, human
[1] = test system: cell lines from other cancer types (osteosarcoma, breast, lung); test: Cell morphology studies (brightfield); settings: 25 µM, 48 h
Description: Brightfield images were captured using a Leica DMi8 microscope with a 10X or 20X objective (HC PL FLUOTAR 10X/0.45 or 20X/0.75) equipped with a Leica DFC9000GT camera, and processed with a Leica Application Suite X (LAS X) Life Science Microscope Software (v3.5.5.19976, RRID:SCR_013673).

colorectal cancer cells [2] = test: Oxidative stress (CellROX Deep Red)
Description: Cancer cells (1 × 10^3) were cultured in 8-well collagen IV Ibidi chamber slides and treated with DMSO or NK-A 17E-233I (25 µM) for 24 h. The media was replaced with fresh media containing 100 nM MitoTracker Red dye to measure ΔΨm (1 mM stock; #M7512; Thermo Fisher Scientific) and 5 µM CellROX Deep Red Reagent to assess oxidative stress levels (2.5 mM stock; #C10422; Thermo Fisher Scientific) for 45 min. The cells were then fixed with 4% methanol-free PFA, washed with PBS, and mounted with Ibidi mounting medium containing 4',6-diamidino-2-phenylindole (DAPI) prior to imaging.
The density of γ-H2AX, Rad51, ΔΨm, and oxidative stress in cancer cells was measured as described in [32], utilizing custom macros available as open access at Zenodo (https://zenodo.org/records/8387899) to obtain raw intensities and individual cell area.

SW620 cells = test: Lactate assay; settings: 25 µM, 24 h; in comparison to Brequinar (100 µM)
Description: This assessment was conducted utilizing a Lactate Assay Kit-WST (#L256-20; Dojindo Laboratories), in accordance with the manufacturer's protocol. Optical density measurements were recorded at 450 nm using a Victor Multilabel Plate Reader.

colorectal cancer cells [3] = test: Cleaved caspase-3 by flow cytometry; settings: 25 µM, 48 h
Description: Cancer cells (3 × 10^4) were cultured in 48-well plates and treated with DMSO or NK-A 17E-233I (25 µM) for 48 h. Following treatment, the cells were harvested, and the supernatant was discarded. Cell pellets were resuspended in 4% methanol-free paraformaldehyde (PFA, #28908; Thermo Fisher Scientific) while vortexing and incubated in the dark at room temperature for 15 min. One milliliter of PBS was added to all tubes, followed by centrifugation at 500 × g for 5 min. The supernatant was discarded, and the pellets were permeabilized using 90% cold methanol with incubation on ice for 10 min. Subsequently, 1 mL of 0.5% BSA (#A3059; Sigma-Aldrich) was added, and the samples were centrifuged at 500 × g for 5 min. The supernatant was discarded, and the pellets were resuspended in 0.5% BSA. The anti–caspase-3 (p17, Cleaved-Asp175) primary antibody (#9661; Cell Signaling, dilution 1:800) was used to incubate samples at room temperature for 1 h. Afterwards, 0.5% BSA was added, and the tubes were centrifuged at 500 × g for 5 min. The supernatant was discarded, and the pellets were resuspended in 0.5% BSA. The samples were then incubated with F(ab')2-Goat anti-Rabbit IgG (H + L) Cross-Adsorbed Secondary Antibody, Alexa Fluor 633 (#A-21072; Invitrogen, dilution 1:1000) in the dark at room temperature for 30 min. […]

[4] = test system: colorectal cancer cell lines; test: DNA fiber assays
Description: Cancer cells were pulse-labeled with 20 µM iododeoxyuridine (IdU) in the dark at 37 °C for 20 min. Subsequently, the cells were washed twice with PBS and then pulse-labeled with 200 µM chlorodeoxyuridine (CldU) in the presence or absence of NK-A 17E-233I (25 µM) in the dark at 37 °C for 1 h. To assess fork restart in cancer cells following treatment, cells were pulse-labeled with 20 µM IdU for 10 min, after which NK-A 17E-233I (25 µM) was either added or no treatment was administered, followed by an additional 1 h of incubation. The cells were then washed twice with PBS and pulse-labeled with 200 µM CldU for 30 min. Following the labeling procedure, cells were washed twice with PBS, scrapped into PBS containing 0.1% Bovine Serum Albumin (BSA), pelleted, and resuspended in PBS with 0.1% BSA at a final concentration of 1.5 × 10^3 cells/µL. A volume of 2.5 µL of the cell suspension was spotted onto a positively charged slide and lysed with 7.5 µL of a spreading buffer (200 mM Tris–HCl, pH 7.5; 50 mM EDTA; 0.5% SDS) at room temperature for 8 min. The slides were then tilted at 45 ° to facilitate DNA spreading. After air-drying, the slides were fixed with ice-cold methanol/acetic acid (3:1) for 5 min, air-dried again, and stored at 4 °C.
The slides were rehydrated with PBS, denatured with 2.5 M HCl for 1 h, washed twice with PBS, and blocked with a blocking buffer (3% BSA; 0.1% Triton X-100 in PBS) for 40 min. Subsequently, the slides were incubated with a primary antibody mixture, including mouse anti-5-Bromo-2'-Deoxyuridine (anti-BrdU) recognizing IdU (#347580; Becton Dickinson, dilution 1:250) and rat anti-BrdU recognizing CldU (#6326; Abcam, dilution 1:250), diluted in a blocking buffer within a dark humid chamber at room temperature for 2.5 h.
For silencing, siNT (non-target, D-001810–10-20 On-TARGET plus Non-targeting pool, Dharmacon) (Horizon Discovery, Waterbeach, UK) and siPOLD2 (Smart pool, ON-TARGETplus Human POLD2 (5425) siRNA oligos directed against human POLD2), were used to transfect cells using RNAiMax Lipofectamine Reagent Mix (Life Technologies) according to the manufacturer’s protocol. 48 h post-transfection, the cells were harvested to evaluate the efficiency of gene silencing, which was estimated to be approximately 90% based on western blot analysis, for further experimental applications.
Afterwards, the slides were washed three times with PBS for 5 min each and incubated with secondary antibodies, anti-mouse Alexa Fluor 594 and anti-rat Alexa Fluor 488 (#A11005 and #A11006, respectively; Invitrogen, dilution 1:250), in a blocking buffer at room temperature in a dark humid chamber for 1 h. After three additional washes with PBS and air-drying, the slides were mounted with ProLong Gold Antifade Reagent (#P36930; Invitrogen) and stored at 4 °C until imaging. Images were acquired using an AF6000 Leica Fluorescence microscope equipped with an HCX PL APO 63x (NA = 1.4) oil objective. ImageJ/Fiji software was utilized to measure the fibers with the segmented line tool.

In the case of COc1cc(C)c(Oc2cc(C)cc(O)c2O)c(O)c1 [NK-A 17E-233I], the cytotoxic effects [1] is reported as “cytotoxic effects”, the ROS levels (colorectal cancer cells [2]; HCT116, 25 µM, 24 h) is reported as “significantly decreased” and the ROS levels (colorectal cancer cells [2]; different cancer cell lines (HT-29), 25 µM) is reported as “without significant effect”. The concentration of lactate (SW620 cells) was “significantly reduced”, the “active caspase-3 staining” value (colorectal cancer cells [3]) was “significantly increased” and the “speed of replication forks (CldU tracks)” value ([4]; 25 µM, 1 h) was “significantly reduced”. The “rescue of replication fork speed by physiological uridine” value ([4]; 25 µM, uridine 10 µM) was “did not demonstrate any discernible rescue”, the “rescue of DNA-damaging effects by excess uridine” value ([4]; 25 µM, uridine 200 µM) was “rescued the DNA-damaging effects” and the “replication fork progression after washout (fork restart)” value ([4]; LS174T, 25 µM, 1 h then washout) was “continued to demonstrate a diminished progression rate”. For the same compound, the “speed of replication forks (CldU tract length)” value ([4]; SW620, 25 µM, 1 h) was “significantly diminished”.
